In publication PMC5834442, “Identifying inhibitors of the Leishmania inositol phosphorylceramide synthase with antiprotozoal activity using a yeast-based assay and ultra-high throughput screening platform” (Scientific Reports, 2018):
Entries after “also recorded” stand apart in the source; their conditions may differ. Like-named read-outs stand apart in the source and are kept apart here.

Columns and labels:
[1] = test system: intra-macrophage Leishmania donovani amastigotes; experiment: Intramacrophage Leishmania donovani assay (high content imaging); assay type: cell-based; conditions: for IC50: Leishmania donovani
LmjFIPCS = biological target: T1, LmjFIPCS (Leishmania major, UniProt E9AFX2); experiment: Biochemical LmjFIPCS assay with CHAPS-washed microsomal membranes; conditions: for IC50: read-out: pIC50 against LmjFIPCS in vitro (converted)
T1 construct: The complete open reading frames of LmjFIPCS and AUR1p was amplified from genomic DNA; made in house
T1 sequence (E9AFX2 whole entry): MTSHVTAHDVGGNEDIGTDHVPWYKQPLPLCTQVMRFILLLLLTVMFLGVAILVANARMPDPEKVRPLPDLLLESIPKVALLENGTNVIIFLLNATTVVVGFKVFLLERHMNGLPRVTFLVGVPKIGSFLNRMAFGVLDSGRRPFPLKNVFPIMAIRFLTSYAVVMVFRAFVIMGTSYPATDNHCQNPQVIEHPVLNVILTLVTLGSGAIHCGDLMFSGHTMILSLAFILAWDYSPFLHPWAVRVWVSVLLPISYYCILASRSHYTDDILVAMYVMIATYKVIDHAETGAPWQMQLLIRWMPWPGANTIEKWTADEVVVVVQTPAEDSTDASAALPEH
Method: Utilizing the availability of an in-house designed and validated biochemical assay for LmjFIPCS[19],[22], following re-synthesis in the free-base form (Aptuit, Verona, Italy) the two benzazepane hits were biochemically analyzed in a dose response assay (8 compound concentrations between 100 μM and 46 nM; Fig. 5). […].
Microsomal material was prepared and CHAPS washed from α ade^−.lys^−.leu^−.Δaur1^−.pESC-LEU_ LmjFIPCS as previously described[19],[22]. Briefly, each compound at the desired concentration was incubated, in at least triplicate, in 96-well plates (Corning) in phosphate buffer (71.4 mM, pH 7.0) with PI (100 µM, final concentration, Avanti Polar Lipids), CHAPS (600 µM, Sigma-Aldrich) and CHAPS-washed microsomal membranes (0.6 U enzyme per reaction) for 15 minutes at 30 °C. NBD-C6-ceramide (5 µM; ThermoFisher) was added, final volume of 40 µl per well, and the plates incubated at 30 °C for a further 25 minutes. […]. Analyses were carried out using GraphPad Prism 7.

[2] = test system: L. major (MHOM/IL/81/Friedlin) wild type; experiment: L. major axenic cell assay (alamarBlue), wild type; assay type: cell-based; conditions: Leishmania major; −logIC50 M; 72 hours; read-out: pIC50 against wild type Leishmania major (converted)
From the text: (§1) However, whilst compound 1 was antiprotozoal and a potent IPC synthase inhibitor, it was unclear whether the mode of action was on-target. To analyze this further, the in-house availability of a sphingolipid mutant L. major (Δlcb2) was exploited. This line[24] lacks serine palmitoyltransferase activity, and whilst LmjFIPCS is still present it is redundant in the absence of in situ substrate. […] […]. Therefore, it is likely that off-target activity has a role in the antileishmanial activity of this benzazepane.
(§2) From a previously described protocol, L. major (MHOM/IL/81/Friedlin, wild type and ΔLCB2 mutant)[24] were added to 96-well plates (Corning) at 1 × 10^4 ml^−1 in growth media with appropriate concentrations of compounds and controls (vehicle and assay media alone, with the robustness of the platform indicated by Z’ values > 0.5)[29] in 100 µl. […]. Analyses were carried out using GraphPad Prism 7.

L. major Δlcb2 mutant = experiment: L. major axenic cell assay (alamarBlue), sphingolipid mutant Δlcb2; assay type: cell-based; conditions: Leishmania major, 72 h, read-out: pIC50 against L. major Δlcb2 mutant (converted)
From the text: as §1, §2

in cellulo LmjFIPCS = biological target: T2, in cellulo LmjFIPCS (Leishmania major, UniProt E9AFX2); experiment: In cellulo IPC synthase assay (BODIPY FL C5-ceramide incorporation into IPC, HPTLC); assay type: cell-based; conditions: L. major ΔLCB2, 10 μM of compound, compared with compound 1
T2 construct: endogenous in cells; host or cells: L. major (MHOM/IL/81/Friedlin) Δlcb2 mutant
T2 sequence (E9AFX2 whole entry): as above
Method: Figure 7 In cellulo activity against LmjFIPCS. […] L. major ΔLCB2 treated with 10 μM of compound prior to metabolic labelling with BODIPY FL C5-ceramide. Inhibition of the incorporation of label into IPC was measured following HPTLC in comparison with a control (vehicle treated). […]. P = 0.006 in students’ t-test indicating the difference is significant (**≤ 0.01).
The L. major Δlcb2 mutant, maintained in Schneider’s media (Sigma-Aldrich) with 15% sera (ThermoFisher), were washed and 200 µl, at 1 × 10^7 ml^−1, incubated in serum free media for 60 minutes at 26 °C before the addition of 10 µM of the compounds, in at least triplicate, and further incubation for 18 hours. Subsequently, the reaction was initiated by the addition of BODIPY FL C5-ceramide complexed to BSA (1.25 µl of 0.5 mM, ThermoFisher). Following further incubation at 26 °C for 1 hour, the lipids were extracted by phase separation in chloroform:methanol:water (10:10:3, 200 µl) and fractionated on HTPLC plates, as previously. The fluorescence was read at Ex475/Em520 using a Fuji FLA-3000 plate reader and AIDA Image Analyser software (version 3.52).

[3] = test system: L. donovani (MHOM/SD/62/1S-CL2D, LdBOB) axenic amastigotes; experiment: Leishmania donovani axenic amastigote dose response assay (resazurin); assay type: cell-based
HepG2 cells = experiment: Mammalian cell cytotoxicity assay (CellTiter-Glo); assay type: cell-based, human; conditions: for IC50: Homo sapiens, -logIC50 mol against HepG2, read-out: PIC50 HepG2 (converted)
THP-1 macrophages = experiment: Host cell toxicity in the intramacrophage assay; assay type: cell-based, human; conditions: for IC50: Homo sapiens, THP-1 host cells in intramacrophage assay, read-out: pIC50 THP-1 (converted); for pSI v THP-1: selectivity: pIC50 InMac minus pIC50 THP-1
[4] = −logIC50 M, biochemical assay, at least 3 independent experiments
[5] = -logIC50 mol against L. donovani (LdBOB) axenic amastigotes, read-out: pIC50 Axenic (converted)
[6] = selectivity: pIC50 axenic minus pIC50 HepG2
[7] = intramacrophage L. donovani, read-out: pIC50 InMac (converted)
[8] = −logIC50 M, 72 hours, read-out: pIC50 against axenic L. donovani amastigotes (converted)
[9] = −logIC50 M, L. donovani infected THP-1 macrophages, 96 hours, read-out: pIC50 against intra-macrophage L. donovani amastigotes (converted)

O=S(=O)(c1ccc2c(c1)CCN(Cc1ccc(F)cc1)CC2)n1ccc2c(F)cccc21 [compound 7]
pIC50 against intra-macrophage L. donovani amastigotes ([1]; −logIC50 M, L. donovani infected THP-1 macrophages, 96 hours): lost | maximal inhibition of LmjFIPCS in vitro (LmjFIPCS; even at higher concentrations): ≤ 60% | IC50 (LmjFIPCS; [4]): 0.0631 µM | IC50 [2]: 3.16 µM | IC50 (L. major Δlcb2 mutant): > 10 µM | in cellulo inhibition of IPC synthase activity (incorporation of BODIPY FL C5-ceramide into IPC) (in cellulo LmjFIPCS): considerably greater in cellulo inhibition of IPC synthase activity than compound 1; also recorded: greater activity against in cellulo LmjFIPCS than compound 1

COc1cccc(-c2csc(NC(=O)c3cccc(Cl)c3)c2C(=O)O)c1 [ST/266497]
IC50 [3, 5]: 7.08 µM | IC50 (HepG2 cells): > 100 µM | pSI v HepG2 (HepG2 cells; [6]): 1.15 | IC50 [1, 7]: 45.7 µM | IC50 (THP-1 macrophages): > 50.1 µM | pSI v THP-1 (THP-1 macrophages): 0.04

Cc1ccnc(-c2nn[nH]c2Br)c1 [LK45855-125A1]
IC50 [3, 5]: 1.74 µM | IC50 (HepG2 cells): > 100 µM | pSI v HepG2 (HepG2 cells; [6]): 1.76 | IC50 [1, 7]: 33.1 µM | IC50 (THP-1 macrophages): 32.4 µM | pSI v THP-1 (THP-1 macrophages): -0.01

O=S(=O)(c1ccc2c(c1)CCN(Cc1cccnc1)CC2)n1ccc2c(F)cccc21 [compound 2]
IC50 [3, 8]: 0.398 µM | IC50 [1, 9]: 2 µM | IC50 (LmjFIPCS; [4]): 6.31 µM

O=C(O)C(F)(F)F.O=c1[nH]ccc2nc(NCCc3c[nH]cn3)nc(Nc3cccc(S(=O)(=O)N4CCOCC4)c3)c12 [N4347-22-1]
IC50 [3, 5]: 10 µM | pSI v HepG2 (HepG2 cells): 1.00 | IC50 (HepG2 cells): > 100 µM | IC50 [1, 7]: 38.9 µM | IC50 (THP-1 macrophages): > 50.1 µM | pSI v THP-1 (THP-1 macrophages): 0.11

O=C(Nc1scc(-c2ccc(Br)cc2)c1C(=O)O)c1ccccc1F [ST/656010]
IC50 [3, 5]: 8.32 µM | IC50 (HepG2 cells): > 100 µM | pSI v HepG2 (HepG2 cells; [6]): 1.08 | IC50 [1, 7]: > 50.1 µM | IC50 (THP-1 macrophages): > 50.1 µM | pSI v THP-1 (THP-1 macrophages): 0.00

COc1cc(OC)cc(C(=O)Nc2nnc(-c3ccccc3Cl)o2)c1 [ST/709938]
IC50 [3, 5]: 0.776 µM | IC50 (HepG2 cells): 85.1 µM | pSI v HepG2 (HepG2 cells; [6]): 2.04 | IC50 [1, 7]: 26.3 µM | IC50 (THP-1 macrophages): > 50.1 µM | pSI v THP-1 (THP-1 macrophages): 0.28

O=S(=O)(c1ccc2c(c1)CCN(Cc1cccnc1)CC2)n1cccc1 [compound 6]
pIC50 against LmjFIPCS in vitro (LmjFIPCS; [4]): lost activity

COc1ccc(S(=O)(=O)Nc2cc([N+](=O)[O-])ccc2Cl)cc1C(C)C [ST/1153644]
IC50 [3, 5]: 10 µM | IC50 (HepG2 cells): > 100 µM | pSI v HepG2 (HepG2 cells; [6]): 1.00 | IC50 [1, 7]: 38.9 µM | IC50 (THP-1 macrophages): > 50.1 µM | pSI v THP-1 (THP-1 macrophages): 0.11

O=S(=O)(c1ccc2c(c1)CCN(Cc1ccc(F)cc1)CC2)n1cccc1 [compound 1]
IC50 [3, 8]: 0.0251 µM | IC50 [1, 9]: 3.16 µM | IC50 (LmjFIPCS; [4]): 0.158 µM | IC50 [2]: 3.16 µM | IC50 (L. major Δlcb2 mutant): 3.16 µM
